Reference: patent US20230081986A1, “METHOD AND REAGENTS TO IMPROVE NONANIMAL OCULAR TOXICITY TESTS” (Lebrun Labs LLC, priority 2021, published 2023)
Like-named read-outs stand apart in the source and are kept apart here.

Columns and labels:
[1] = system: rabbit eye (cornea, iris, and conjunctiva); details: Lebrun et al., cited from earlier work; for in vivo EPA: EPA classification, 2020 / NICEATM, 2006; for in vivo GHS: GHS classification, 2020
[2] = system: food-source rabbit eyes (cornea)
Experimental: (§1) Because of these modifications, we have updated our prediction model to include the metabolic test to identify reversible irritants or toxicity as shown in FIG. 3. For GHS (A) and EPA (B) classification systems, if the direct procedure (100 µL, washed after 1 minute exposure with 20 mL tear solution using a blunt end syringe 2-5 cm from cornea to create a laminar flow across the tissue) is negative, the metabolic result is used to confirm the negative result or identify reversible irritants or toxicity (GHS 2 or EPA II) if increased DoI is detected. […] For the GHS classification system, the NC is defined by no stromal DoI and a negative metabolic test.
Only food source eyes are suitable for this procedure.
3) Put the lid onto the 12 well plate(s) and place into the incubator (37° C., 5% CO2) for one hour.
3) Place an eye on the holder and carefully place a new cloning ring in the middle of the cornea without scratching it.
9) Start the timer for one minute.
10) After the one minute is over, remove the dosing ring and put in the proper container, and pick up the tissue without touching the cornea and hold it over the container for liquid waste.

[3] = system: food-source rabbit eyes (cornea); remark: listed apart in the source
Experimental: All of the steps of the META test are the same as the direct test except for the dosing step. For the META, 100 µL of tear solution (saline with ascorbic acid, protein) is first added to the dosing ring, followed by the addition of 100 µL of the material to be tested.
as §1
NOTE: The steps of the main procedure are the same as described above. The only deviations are described below and apply to the dosing of the corneas and interpretation of results. • 1) After the pre-incubation, remove the 12 well plate(s) from the incubator and place in the hood. • 2) Using a skinny sharpie, label the wells on the lid (water or specific chemical). • 3) Place an eye on the holder and carefully place a new cloning ring in the middle of the cornea without scratching it. • 4) Remove the needle from the syringe by twisting it off. Fill the syringe with 40 mL of 1x PBS by aliquoting it from the beaker. • 5) Put the needle back on the syringe by twisting on and remove the cap protecting the needle. Place the syringe flat on a sterile piece of foil. • 6) Obtain the timer. Add 100 uL of the T8 tear solution in the center of the dosing ring. Ensure the entire surface is covered. • 7) Retrieve 100 uL of the sample and aspirate in the center of the dosing ring, ensuring the entire surface is exposed.

[4] = system: food-source rabbit eyes (cornea); details: for Prediction EPA: EPA prediction model from direct and metabolic results; for Prediction GHS: GHS prediction model from direct and metabolic results
Description: FIG. 3 depicts the EPA and GHS prediction models. […] Meta. = Metabolic; GHS = Globally Harmonized System of Classification and Labeling of chemicals; EPA = Environmental Protection Agency; NC = Not Classified; * = Apical death of epithelium of at least 10%; must be a clear line of nuclei.
as §1

[5] = 6 minutes, 100 µL tear solution then 100 µL test material, run only where Direct was 0%
[6] = 100 µL, 1 minute exposure, tear solution wash, 24 hours organ culture

Row | Compound | in vivo EPA [1] | in vivo GHS [1] | Direct (depth of injury, stromal) ([2]; rabbit, 1 min) | Meta. (Metabolic) [3, 5] | Direct (depth of injury, stromal) [2, 6] | Meta. (Metabolic) [3] | Prediction EPA [4] | Prediction GHS [4]
1 | CCC(C)(C)C(=O)O [2,2-Dimethyl butanoic acid] | I (I (corrosive, lesions are not reversed within 21 days)) | 1 (1 (extreme and/or irreversible irritation effects that are not reversed within 21 days)) | 27.4% | – | – | – | – | –
2 | C[Si](C)(C)O[Si](C)(C)C [Hexamethyldisiloxane] | – | – | – | Neg. | 0.0% | – | – | –
3 | OCCCCC(O)CO (stereo not shown) [1,2,6-Hexanetriol] | – | – | – | Neg. | 0.0% | – | – | –
4 | CC(=O)O [Acetic Acid (10%), Acetic Acid] | I (I (corrosive, lesions are not reversed within 21 days)) | 1 (1 (extreme and/or irreversible irritation effects that are not reversed within 21 days)) | – | – | – | – | – | –
5 | CCCCCCCCOCCCCCCCC [Dioctyl ether] | – | – | 0.0% | – | – | Neg. | – | –
6 | OC1CCCCC1 [Cyclohexanol] | I (I (corrosive, lesions are not reversed within 21 days)) | 1 (1 (extreme and/or irreversible irritation effects that are not reversed within 21 days)) | – | – | 29.6% | – | I (category I includes damage greater than 25%) | 1 (GHS category 1 is defined as stromal damage of 18% or greater)
7 | CCC(C)c1ccccc1 (stereo not shown) [sec-Butylbenzene] | – | – | – | Neg. | 0.0% | – | – | –
8 | CCCOCC(C)O (stereo not shown) [Propasol solvent P] | II (II (damage is reversed within 21 days of exposure)) | 2A (2 A, irritation effects are reversed within 21 days) | – | – | 18.3% | – | II (category II includes damage greater than 15% but less than 25% (or is positive for cell death by the metabolic test)) | 1 (GHS category 1 is defined as stromal damage of 18% or greater)
9 | CCCCCC(C)=O [Methyl amyl ketone] | III (III (damage is reversed within 7 days of exposure)) | – | – | – | 6.0% | – | III (category III includes damage to the epithelium of the stroma up to 15%) | 2 (Category 2 is identified by any stromal DoI up to 18% or a positive metabolic test)
10 | CC(=O)CC(=O)OC(C)C [Isopropyl acetoacetate] | III (III (damage is reversed within 7 days of exposure)) | 2B (2 B, within 7 days) | 0.0% | – | – | Pos. | – | –
11 | CCOC(=O)C(C)(C)O [2-Hydroxy isobutyric acid ethyl ester] | *I^2 (I (corrosive, lesions are not reversed within 21 days)) | 1 (1 (extreme and/or irreversible irritation effects that are not reversed within 21 days)) | 42.3% | – | – | – | – | –
12 | CC(C)CC(=O)CC(C)C [Di-iso-butyl ketone] | – | – | 0.0% | – | – | – | – | –
13 | Cc1ccccc1 [Toluene] | – | – | – | – | 50.1% | – | – | 1 (GHS category 1 is defined as stromal damage of 18% or greater)
14 | C=CC(=O)OCCCCCC(C)C [iso-Octyl acrylate] | – | – | – | – | 0.0% | – | – | –
15 | CC(C)CCCCCOC(=O)CS [iso-Octylthioglycolate] | – | – | – | Neg. | 0.0% | – | – | –
16 | CCCCCCCCBr [n-Octyl bromide] | – | – | – | – | 0.0% | – | – | –

Row | Compound | in vivo EPA [1] | in vivo GHS [1] | Direct (depth of injury, stromal) ([2]; rabbit, 1 min) | Meta. (Metabolic) [3, 5] | Direct (depth of injury, stromal) [2, 6] | Meta. (Metabolic) [3] | Prediction EPA [4] | Prediction GHS [4]
17 | N#CCCCl [3-Chloropropionitrile] | III (III (damage is reversed within 7 days of exposure)) | 2B (2 B, within 7 days) | – | – | 12.0% | – | III (category III includes damage to the epithelium of the stroma up to 15%) | 2 (Category 2 is identified by any stromal DoI up to 18% or a positive metabolic test)
18 | COC(C)=O [Methyl acetate] | II (II (damage is reversed within 21 days of exposure)) | 2A (2 A, irritation effects are reversed within 21 days) | 24.0% | – | – | – | – | –
19 | CC(O)CO (stereo not shown) [Propylene glycol] | – | – | 0.0% | – | – | Neg. | – | –
20 | O=C(Cl)c1c(Cl)cccc1Cl [2,6-Dichlorobenzoyl chloride] | II (II (damage is reversed within 21 days of exposure)) | 2A (2 A, irritation effects are reversed within 21 days) | – | Pos. | 0.0% | – | II (category II includes damage greater than 15% but less than 25% (or is positive for cell death by the metabolic test)) | 2 (Category 2 is identified by any stromal DoI up to 18% or a positive metabolic test)
21 | COCC(O)CO (stereo not shown) [3-Methoxy-1,2-propanediol] | – | – | – | Neg. | 0.0% | – | – | –
22 | OCC(O)CO [Glycerol] | – | – | 0.0% | – | – | – | – | –
23 | O=S(=O)(Cl)c1ccccc1 [Benzenesulphonylchloride] | *I^2 (I (corrosive, lesions are not reversed within 21 days)) | 1 (1 (extreme and/or irreversible irritation effects that are not reversed within 21 days)) | – | – | 52.8% | – | I (category I includes damage greater than 25%) | 1 (GHS category 1 is defined as stromal damage of 18% or greater)
24 | BrCCCCCCBr [1,6-Dibromohexane] | – | – | – | Neg. | 0.0% | – | – | –
25 | CC(O)CC(C)O (stereo not shown) [2,4-Pentanediol] | – | – | 0.0% | – | – | Neg. | – | –
26 | CCCC(C)CO (stereo not shown) [2-Methyl-1-pentanol] | III (III (damage is reversed within 7 days of exposure)) | 2B (2 B, within 7 days) | 5.7% | – | – | – | III (category III includes damage to the epithelium of the stroma up to 15%) | –
27 | C=CC(=O)OCCO [Hydroxyethyl acrylate] | – | – | – | – | 100.0% | – | – | 1 (GHS category 1 is defined as stromal damage of 18% or greater)
28 | CCCCCC [Hexane] | – | – | – | Neg. | 0.0% | – | – | –
29 | CC(O)C(=O)O (stereo not shown) [Lactic acid] | I (I (corrosive, lesions are not reversed within 21 days)) | 1 (1 (extreme and/or irreversible irritation effects that are not reversed within 21 days)) | 100.0% | – | – | – | I (category I includes damage greater than 25%) | –
30 | Diethylaminopropionitrile | II (II (damage is reversed within 21 days of exposure)) | 1 (1 (extreme and/or irreversible irritation effects that are not reversed within 21 days)) | – | – | 56.8% | – | II (category II includes damage greater than 15% but less than 25% (or is positive for cell death by the metabolic test)) | 1 (GHS category 1 is defined as stromal damage of 18% or greater)
31 | CC(C)=O [Acetone] | II (II (damage is reversed within 21 days of exposure)) | 2A (2 A, irritation effects are reversed within 21 days) | – | Pos. | 0.0% | – | II (category II includes damage greater than 15% but less than 25% (or is positive for cell death by the metabolic test)) | 2 (Category 2 is identified by any stromal DoI up to 18% or a positive metabolic test)
32 | OC1CCCC1 [Cyclopentanol] | II (II (damage is reversed within 21 days of exposure)) | 2B (2 B, within 7 days) | – | – | 30.4% | – | I (category I includes damage greater than 25%) | 1 (GHS category 1 is defined as stromal damage of 18% or greater)
